Reference: patent publication US11535629B2, “Dioxoloisoquinolinone derivatives and use thereof” (HANMI PHARMACEUTICAL CO., LTD., priority 2020, dated 2022)

System: KARPAS-422 cells
Assay: Cell growth inhibition test (CTG method)
Format: cell-based
Details: Homo sapiens, KARPAS-422, 168 h, KARPAS-422 (EZH2^Y641N mutant), culturing for 7 days; read-out: Cell growth inhibitory activity (GI50, nM) KARPAS-422 (EZH2^Y641N mutant)
Description: The cultured cell strain was prepared at 1.8×10^4 cells/400 μL and placed in a 48-well plate.

SMILES | GI50 [nM]
Cc1cc(C)c(CN2CCc3c(Cl)c4c(c(C)c3C2=O)OC(C)(C23CCC(N(C)C)(CC2)CC3)O4)c(=O)[nH]1 (stereo not shown) [Compound 1, 9-chloro-6-((4,6-dimethyl-2-oxo-1,2-dihydropyridin-3-yl)methyl)-2-(4-(dimethylamino)bicyclo[2.2.2]octan-1-yl)-2,4-dimethyl-7,8-dihydro-[1,3]dioxolo[4,5-g]isoquinolin-5(6H)-one] | 10 to 100
Cc1cc(C)c(CN2CCc3c(Br)c4c(c(C)c3C2=O)OC(C)(C23CCC(N(C)C)(CC2)CC3)O4)c(=O)[nH]1 (stereo not shown) [Compound 10, 9-bromo-6-((4,6-dimethyl-2-oxo-1,2-dihydropyridin-3-yl)methyl)-2-(4-(dimethylamino)bicyclo[2.2.2]octan-1-yl)-2,4-dimethyl-7,8-dihydro-[1,3]dioxolo[4,5-g]isoquinolin-5(6H)-one] | 4.1 to 55
Cc1cc(C)c(CN2CCc3c(c(C)c4c(c3C3CC3)OC(C)(C35CCC(N(C)C)(CC3)CC5)O4)C2=O)c(=O)[nH]1 (stereo not shown) [Compound 13, 9-cyclopropyl-6-((4,6-dimethyl-2-oxo-1,2-dihydropyridin-3-yl)methyl)-2-(4-(dimethylamino)bicyclo[2.2.2]octan-1-yl)-2,4-dimethyl-7,8-dihydro-[1,3]dioxolo[4,5-g]isoquinolin-5(6H)-one] | 30
Cc1cc(C)c(CN2CCc3cc4c(c(C)c3C2=O)OC(C)(C23CCC(N(C)C)(CC2)CC3)O4)c(=O)[nH]1 (stereo not shown) [Compound 14, 6-((4,6-dimethyl-2-oxo-1,2-dihydropyridin-3-yl)methyl)-2-(4-(dimethylamino)bicyclo[2.2.2]octan-1-yl)-2,4-dimethyl-7,8-dihydro-[1,3]dioxolo[4,5-g]isoquinolin-5(6H)-one] | 45
Cc1cc(C)c(CN2CCc3c(c(C)c4c(c3C3CCCC3)OC(C)(C35CCC(N(C)C)(CC3)CC5)O4)C2=O)c(=O)[nH]1 (stereo not shown) [Compound 16, 9-cyclopentyl-6-((4,6-dimethyl-2-oxo-1,2-dihydropyridin-3-yl)methyl)-2-(4-(dimethylamino)bicyclo[2.2.2]octan-1-yl)-2,4-dimethyl-7,8-dihydro-[1,3]dioxolo[4,5-g]isoquinolin-5(6H)-one] | 36
CCc1c2c(c(C)c3c1OC(C)(C14CCC(N(C)C)(CC1)CC4)O3)C(=O)N(Cc1c(C)cc(C)[nH]c1=O)CC2 (stereo not shown) [Compound 18, 6-((4,6-dimethyl-2-oxo-1,2-dihydropyridin-3-yl)methyl)-2-(4-(dimethylamino)bicyclo[2.2.2]octan-1-yl)-9-ethyl-2,4-dimethyl-7,8-dihydro-[1,3]dioxolo[4,5-g]isoquinolin-5(6H)-one] | 27
Cc1cc(C)c(CN2CCc3c(c(C)c4c(c3C(C)C)OC(C)(C35CCC(N(C)C)(CC3)CC5)O4)C2=O)c(=O)[nH]1 (stereo not shown) [Compound 20, 6-((4,6-dimethyl-2-oxo-1,2-dihydropyridin-3-yl)methyl)-2-(4-(dimethylamino)bicyclo[2.2.2]octan-1-yl)-9-isopropyl-2,4-dimethyl-7,8-dihydro-[1,3]dioxolo[4,5-g]isoquinolin-5(6H)-one] | 47
C#Cc1c2c(c(C)c3c1OC(C)(C14CCC(N(C)C)(CC1)CC4)O3)C(=O)N(Cc1c(C)cc(C)[nH]c1=O)CC2 (stereo not shown) [Compound 21, 6-((4,6-dimethyl-2-oxo-1,2-dihydropyridin-3-yl)methyl)-2-(4-(dimethylamino)bicyclo[2.2.2]octan-1-yl)-9-ethynyl-2,4-dimethyl-7,8-dihydro-[1,3]dioxolo[4,5-g]isoquinolin-5(6H)-one] | 18
COc1cc(C)[nH]c(=O)c1CN1CCc2c(C)c3c(c(C)c2C1=O)OC(C)(C12CCC(N(C)C)(CC1)CC2)O3 (stereo not shown) [Compound 25, 2-(4-(dimethylamino)bicyclo[2.2.2]octan-1-yl)-6-((4-methoxy-6-methyl-2-oxo-1,2-dihydropyridin-3-yl)methyl)-2,4,9-trimethyl-7,8-dihydro[1,3]dioxolo[4,5-g]isoquinolin-5(6H)-one] | 14
CCCc1cc(C)[nH]c(=O)c1CN1CCc2c(C)c3c(c(C)c2C1=O)OC(C)(C12CCC(N(C)C)(CC1)CC2)O3 (stereo not shown) [Compound 26, 2-(4-(dimethylamino)bicyclo[2.2.2]octan-1-yl)-2,4,9-trimethyl-6-((6-methyl-2-oxo-4-propyl-1,2-dihydropyridin-3-yl)methyl)-7,8-dihydro[1,3]dioxolo[4,5-g]isoquinolin-5(6H)-one] | 46
Cc1cc(C)c(CN2CCc3c(C)c4c(c(Cl)c3C2=O)OC(C)(C23CCC(N(C)C)(CC2)CC3)O4)c(=O)[nH]1 (stereo not shown) [Compound 27, 4-chloro-6-((4,6-dimethyl-2-oxo-1,2-dihydropyridin-3-yl)methyl)-2-(4-(dimethylamino)bicyclo[2.2.2]octan-1-yl)-2,9-dimethyl-7,8-dihydro-[1,3]dioxolo[4,5-g]isoquinolin-5(6H)-one] | 9.8
Cc1cc(C)c(CN2CCc3c(Cl)c4c(c(Cl)c3C2=O)OC(C)(C23CCC(N(C)C)(CC2)CC3)O4)c(=O)[nH]1 (stereo not shown) [Compound 28, 4,9-dichloro-6-((4,6-dimethyl-2-oxo-1,2-dihydropyridin-3-yl)methyl)-2-(4-(dimethylamino)bicyclo[2.2.2]octan-1-yl)-2-methyl-7,8-dihydro-[1,3]dioxolo[4,5-g]isoquinolin-5(6H)-one] | 13
Cc1cc(C)c(CN2CCc3c(Cl)c4c(c(C)c3C2=O)OC(C23CCC(N(C)C)(CC2)CC3)O4)c(=O)[nH]1 (stereo not shown) [Compound 29, 9-chloro-6-((4,6-dimethyl-2-oxo-1,2-dihydropyridin-3-yl)methyl)-2-(4-(dimethylamino)bicyclo[2.2.2]octan-1-yl)-4-methyl-7,8-dihydro-[1,3]dioxolo[4,5-g]isoquinolin-5(6H)-one] | 36
Cc1cc(C)c(CN2CCc3c(c(C)c4c(c3-c3ccco3)O[C@@](C)([C@H]3CC[C@H](N(C)C)CC3)O4)C2=O)c(=O)[nH]1 [Compound 31, (S)-6-((4,6-dimethyl-2-oxo-1,2-dihydropyridin-3-yl)methyl)-2-(trans-4-(dimethylamino)cyclohexyl)-9-(furan-2-yl)-2,4-dimethyl-7,8-dihydro-[1,3]dioxolo[4,5-g]isoquinolin-5(6H)-one] | > 1000
Cc1cc(C)c(CN2CCc3c(c(C)c4c(c3-c3cccs3)O[C@@](C)([C@H]3CC[C@H](N(C)C)CC3)O4)C2=O)c(=O)[nH]1 [Compound 33, (S)-6-((4,6-dimethyl-2-oxo-1,2-dihydropyridin-3-yl)methyl)-2-(trans-4-(dimethylamino)cyclohexyl)-2,4-dimethyl-9-(thiophen-2-yl)-7,8-dihydro-[1,3]dioxolo[4,5-g]isoquinolin-5(6H)-one] | > 1000
Cc1cc(C)c(CN2CCc3c(c(C)c4c(c3-c3ccncc3)O[C@@](C)([C@H]3CC[C@H](N(C)C)CC3)O4)C2=O)c(=O)[nH]1 [Compound 35, (S)-6-((4,6-dimethyl-2-oxo-1,2-dihydropyridin-3-yl)methyl)-2-(trans-4-(dimethylamino)cyclohexyl)-2,4-dimethyl-9-(pyridin-4-yl)-7,8-dihydro-[1,3]dioxolo[4,5-g]isoquinolin-5(6H)-one] | > 1000

Same assay, conditions: KARPAS-422 (EZH2^Y641N mutant), culturing for 7 days; read-out: Cell growth inhibitory activity (GI50, nM) KARPAS-422 (EZH2^Y641N mutant)

SMILES | GI50 [nM]
Cc1cc(C)c(CN2CCc3c(Cl)c4c(c(C)c3C2=O)OC(C)(C23CCC(N(C)C)(CC2)CC3)O4)c(=O)[nH]1 (single isomer, unassigned) [Compound 3, 9-chloro-6-((4,6-dimethyl-2-oxo-1,2-dihydropyridin-3-yl)methyl)-2-(4-(dimethylamino)bicyclo[2.2.2]octan-1-yl)-2,4-dimethyl-7,8-dihydro-[1,3]dioxolo[4,5-g]isoquinolin-5(6H)-one] | 100 to 1000
COc1cc(C)[nH]c(=O)c1CN1CCc2c(Cl)c3c(c(C)c2C1=O)OC(C)(C12CCC(N(C)C)(CC1)CC2)O3 (single isomer, unassigned) [Compound 6, 9-chloro-2-(4-(dimethylamino)bicyclo[2.2.2]octan-1-yl)-6-((4-methoxy-6-methyl-2-oxo-1,2-dihydropyridin-3-yl)methyl)-2,4-dimethyl-7,8-dihydro[1,3]dioxolo[4,5-g]isoquinolin-5(6H)-one] | > 1000
CSc1cc(C)[nH]c(=O)c1CN1CCc2c(Cl)c3c(c(C)c2C1=O)OC(C)(C12CCC(N(C)C)(CC1)CC2)O3 (single isomer, unassigned) [Compound 9, 9-chloro-2-(4-(dimethylamino)bicyclo[2.2.2]octan-1-yl)-2,4-dimethyl-6-((6-methyl-4-(methylthio)-2-oxo-1,2-dihydropyridin-3-yl)methyl)-7,8-dihydro[1,3]dioxolo[4,5-g]isoquinolin-5(6H)-one] | 100 to 1000
Cc1cc(C)c(CN2CCc3c(Br)c4c(c(C)c3C2=O)OC(C)(C23CCC(N(C)C)(CC2)CC3)O4)c(=O)[nH]1 (single isomer, unassigned) [Compound 12, 9-bromo-6-((4,6-dimethyl-2-oxo-1,2-dihydropyridin-3-yl)methyl)-2-(4-(dimethylamino)bicyclo[2.2.2]octan-1-yl)-2,4-dimethyl-7,8-dihydro-[1,3]dioxolo[4,5-g]isoquinolin-5(6H)-one] | > 1000
Cc1cc(C)c(CN2CCc3c(C)c4c(c(C)c3C2=O)OC(C)(C23CCC(N(C)C)(CC2)CC3)O4)c(=O)[nH]1 (stereo not shown) [Compound 22, 6-((4,6-dimethyl-2-oxo-1,2-dihydropyridin-3-yl)methyl)-2-(4-(dimethylamino)bicyclo[2.2.2]octan-1-yl)-2,4,9-trimethyl-7,8-dihydro-[1,3]dioxolo[4,5-g]isoquinolin-5(6H)-one] | 12 to 19
Cc1cc(C)c(CN2CCc3c(C)c4c(c(C)c3C2=O)OC(C)(C23CCC(N(C)C)(CC2)CC3)O4)c(=O)[nH]1 (stereo not shown) [Compound 24, 6-((4,6-dimethyl-2-oxo-1,2-dihydropyridin-3-yl)methyl)-2-(4-(dimethylamino)bicyclo[2.2.2]octan-1-yl)-2,4,9-trimethyl-7,8-dihydro-[1,3]dioxolo[4,5-g]isoquinolin-5(6H)-one] | 100 to 1000
